Data from paper PMC10741027, “Risk Assessment of Psychotropic Drugs on Mitochondrial Function Using In Vitro Assays” (Biomedicines, 2023).
Where two headings read alike, the source gives them in different places.

How the values were obtained:
[1] = system: rPFO permeabilized HepG2 cells; experiment: Mitochondrial respiratory complexes in rPFO permeabilized HepG2 cells (Seahorse XF); details: for AC50: Homo sapiens, HepG2, read-out: Pyruvate Respiration AC50
HepG2 cells [2] = experiment: Acute extracellular flux (AEF) assay in intact HepG2 cells (Seahorse XFe96); type: cell-based, human; details: Homo sapiens
[3] = literature values, plasma or serum of adult humans when possible; ref 68-88 (per drug, Table 2 Cmax Reference); cited from earlier work
HepG2 cells [4] = experiment: Glu/Gal assay: cellular ATP (CellTiter-Glo) after 24 h in glucose or galactose media; details: for AC50 / minimal effective concentration: Homo sapiens, HepG2, 24 h
CI-linked respiration = details: read-out: CI-linked respiration IC50, cited from earlier work
CII-linked respiration = details: read-out: CII-linked respiration IC50, cited from earlier work
[5] = system: rat liver mitochondria (CII-linked respiration); experiment: High-resolution respirometry, MMP and ROS in isolated rat liver mitochondria (Oroboros O2k); type: biochemical; details: for % MMP / % O2 consumption: basal succinate-driven respiration, normalized to control; for Mode of action on respiration in isolated RLM (in words): CII-linked respiration
Experimental: Mitochondria were isolated from adult Wistar Rat liver. […] The liver was homogenized with 10 passes in a loose-fitting homogenizer, followed by 10 passes in a tight-fitting homogenizer, and filtered through muslin. The tissue homogenate was then centrifuged at 1000× g for 10 min at 4 °C and the supernatants were further centrifuged at 10,000× g for 10 min. The centrifugation steps were repeated, preserving the pellet. […] Protein concentration was determined using the Bradford method with bovine serum albumin as the standard. The Oroboros® Oxygraph-2K (Oroboros Instruments, Innsbruck, Austria) was used to simultaneously analyze high-resolution respirometry and mitochondrial membrane potential (MMP). […] At the beginning of each experiment, the O2k chambers were filled with 2 mL of reaction buffer (200 mM sucrose, 25 mM KCl, 5 mM MgCl2, 4 mM KH2PO4, 5 mM MOPS, pH 7.4) and equilibrated with air at 37 °C. During the experiments, the incubation chambers were kept at constant temperature by Peltier control (±0.001 °C) and the medium was stirred using white PVDF-coated stirrers (750 rpm). […] This was followed by serial additions of the drugs to assess their dose-dependent effect on the MMP and mitochondrial respiration. Injection of RLM results in an uptake of safranin and a corresponding decline in the fluorescence signal.

respiratory CI = system: respiratory CI; set-up: method as in PMID 9309697; details: human brain cortex; read-out: CI inhibition IC50; cited from earlier work
[6] = HepG2, minimum effective concentration crossing vehicle control threshold, read-out: MEC ATP Production
[7] = HepG2, minimum effective concentration crossing vehicle control threshold, read-out: MEC OCR
[8] = HepG2, minimum effective concentration crossing vehicle control threshold, read-out: MEC Reserve Capacity
[9] = HepG2, concentration at which 50% maximum effect is observed, read-out: AC50 ATP Production
[10] = HepG2, concentration at which 50% maximum effect is observed, read-out: AC50 OCR
[11] = HepG2, concentration at which 50% maximum effect is observed, read-out: AC50 Reserve Capacity
[12] = HepG2, minimum effective concentration crossing vehicle control threshold, read-out: MEC Proton Leak
[13] = HepG2, concentration at which 50% maximum effect is observed, read-out: AC50 Proton Leak
[14] = HepG2, concentration at which 50% maximum effect is observed, read-out: AC50 ECAR
[15] = isolated mitochondria, partial inhibition
[16] = HepG2, minimum effective concentration crossing vehicle control threshold, read-out: MEC ECAR

SMILES | minimal effective concentration (HepG2 cells [2]; [6]) [µM] | minimal effective concentration (HepG2 cells [2]; [7]) [µM] | minimal effective concentration (HepG2 cells [2]; [8]) [µM] | AC50 (HepG2 cells [2]; [9]) [µM] | AC50 (HepG2 cells [2]; [10]) [µM] | AC50 (HepG2 cells [2]; [11]) [µM] | Cmax [3] [nM] | AC50 (HepG2 cells [4]; read-out: Gal AC50) [µM] | minimal effective concentration (HepG2 cells [4]; read-out: Gal MEC) [µM] | AC50 (HepG2 cells [4]; read-out: Glu AC50) [µM] | minimal effective concentration (HepG2 cells [4]; read-out: Glu MEC) [µM] | minimal effective concentration (HepG2 cells [2]; [12]) [µM] | AC50 (HepG2 cells [2]; [13]) [µM] | AC50 (HepG2 cells [2]; [14]) [µM] | further results
OCCOCCN1CCN(C2=Nc3ccccc3Sc3ccccc32)CC1 [Quetiapine] | 92.3 | 19 | 26.1 | > 150 | > 150 | 124 | 1880 | 79 | 57.7 | 76.7 | 49.3 |  |  |  | AC50 [1]: > 150 µM
O=C1Cc2cc(CCN3CCN(c4nsc5ccccc45)CC3)c(Cl)cc2N1 [Ziprasidone] | 0.95 |  |  | > 12.7 |  |  | 110 | > 40 | 28.3 |  |  | 0.12 | 2.19 |  | IC50 (CI-linked respiration; pig brain mitochondria): 188 µM; IC50 (CII-linked respiration; pig brain mitochondria): 86 µM
NC(=O)N1c2ccccc2C=Cc2ccccc21 [Carbamazepine] | 165 | 13.1 | 137 | 363 | > 600 | > 190 | 6300 | > 600 | 408 | > 600 |  | 97 | > 600 | > 600 | IC50 (CI-linked respiration; [15]): 353 µM; IC50 (CII-linked respiration; [15]): 182 µM
CN(C)CCCC1(c2ccc(F)cc2)OCc2cc(C#N)ccc21 (stereo not drawn) [Citalopram] |  |  |  | > 10 | > 10 | > 10 | 100 | > 10 | 7.11 | > 10 | 4.43 | 7.17 | > 10 | > 10 | reduction in cell viability (HepG2 cells [4]; 10 µM, both media conditions, 24 h): around 40%
O=C1CCc2ccc(OCCCCN3CCN(c4cccc(Cl)c4Cl)CC3)cc2N1 [Aripiprazole] | 3.49 | 2.06 | 0.344 | > 10 | > 10 | > 10 | 700 | 9.17 | 5.67 |  |  |  |  | > 10 | minimal effective concentration (HepG2 cells [2]; [16]): 9.2 µM
CN(C)CCCN1c2ccccc2Sc2ccc(Cl)cc21 [Chlorpromazine] | 94.2 | 73.4 | 78.4 | > 100 | > 100 | > 100 | 900 | 16.9 | 10.5 | 15.9 | 10.7 | 31 | > 100 | > 100 | % MMP ([5]; 20 μM): 88%; % O2 consumption ([5]; 20 μM): 111%; % MMP ([5]; 50 μM): 79%; % O2 consumption ([5]; 50 μM): 125%; % MMP ([5]; 100 μM): 72%; % O2 consumption ([5]; 100 μM): 131%; Mode of action on respiration in isolated RLM (in words) [5]: uncoupler of OXPHOS; Mode of action on respiration in isolated RLM (in words) ([5]; listed as chlorpromazine): uncoupler in basal respiration and an ETC inhibitor under uncoupled respiration; IC50 ([5]; CII-linked, succinate + rotenone, stimulated with 0.25 µM CCCP, 50–400 µM, read-out: IC50 uncoupled respiration): 135 µM; ROS production ([5]; uncoupled respiration, increasing concentrations): reduction in the production of ROS; Most sensitive mechanism / response in permeabilized HepG2 assay (OCR) ([1]; in words): did not show a significant response; IC50 (respiratory CI): 400 µM; minimal effective concentration (HepG2 cells [2]; [16]): 15.6 µM; IC50 (CI-linked respiration; pig brain mitochondria): 116 µM
C=C(C)[C@H]1Cc2c(ccc3c2O[C@@H]2COc4cc(OC)c(OC)cc4[C@@H]2C3=O)O1 [Rotenone] |  |  |  |  |  |  |  | 0.00605 | 0.002 | 27.8 | 0.29 |  |  |  | AC50 [1]: 0.0071 µM; AC50 (HepG2 cells [2]; HepG2, read-out: AC50 ATP Production): 0.0459 µM; AC50 (HepG2 cells [2]; HepG2, read-out: AC50 ECAR): > 1 µM; AC50 (HepG2 cells [2]; HepG2, read-out: AC50 OCR): 0.0433 µM; AC50 (HepG2 cells [2]; HepG2, read-out: AC50 Proton Leak): 0.213 µM; AC50 (HepG2 cells [2]; HepG2, read-out: AC50 Reserve Capacity): 0.0106 µM; minimal effective concentration (HepG2 cells [2]; HepG2, read-out: MEC ATP Production): 0.0159 µM; minimal effective concentration (HepG2 cells [2]; HepG2, read-out: MEC ECAR): 0.0274 µM; minimal effective concentration (HepG2 cells [2]; HepG2, read-out: MEC OCR): 0.0053 µM; minimal effective concentration (HepG2 cells [2]; HepG2, read-out: MEC Proton Leak): 0.012 µM; minimal effective concentration (HepG2 cells [2]; HepG2, read-out: MEC Reserve Capacity): < 0.003 µM
O=C(CCCN1CCC(O)(c2ccc(Cl)cc2)CC1)c1ccc(F)cc1 [Haloperidol] |  |  |  |  |  |  | 20 | 78.6 | 26 | 57.5 | 26.2 |  |  |  | % MMP ([5]; 20 μM): 88%; % O2 consumption ([5]; 20 μM): 85%; % MMP ([5]; 50 μM): 69%; % O2 consumption ([5]; 50 μM): 77%
